Experimental data published in publication PMC10342010, “Djakonoviosides A, A1, A2, B1–B4 — Triterpene Monosulfated Tetra- and Pentaosides from the Sea Cucumber Cucumaria djakonovi: The First Finding of a Hemiketal Fragment in the Aglycones; Activity against Human Breast Cancer Cell Lines” (International Journal of Molecular Sciences, 2023).
Where a name gives a salt, the structure may show the parent alone.

What was measured:
HEK293 cells = test: Cytotoxic activity (MTT assay); type: cell-based, human; details: HEK293, MTT, 24 h; read-out: Cytotoxicity, IC50 HEK293
Method: (§1) After incubation, the glycosides with medium were replaced by 100 μL of fresh medium. Then, 10 μL of MTT (3-(4,5-dimethylthiazol-2-yl)-2,5-diphenyltetrazolium bromide) (Sigma-Aldrich, St. Louis, MO, USA) stock solution (5 mg/mL) was added to each well, followed by incubation of the microplate for 4 h. After this procedure, 100 μL of SDS-HCl solution (1 g SDS/10 mL d-H2O/17 μ[…] HCl) was added to each well and incubated for 18 h. The absorbance of the converted dye formazan was determined with a Multiskan FC microplate photometer (Thermo Fisher Scientific, Waltham, MA, USA) at 570 nm.

T-47D cells = test: Cytotoxic activity (MTT assay); type: cell-based, human; details: T-47D, MTT, 24 h; read-out: Cytotoxicity, IC50 T-47D
Method: as §1

human erythrocytes = test: Hemolytic activity; type: cell-based; details: for ED50, Erythrocytes: 1 h incubation at 37 °C, 50% hemolysis
Method: Erythrocytes were obtained from human blood (AB(IV) Rh+) by centrifugation with phosphate-buffered saline (PBS) (pH 7.4) at 4 °C for 5 min by 450 g on a LABOFUGE 400R centrifuge (Heraeus, Hanau, Germany) three times. Then, the erythrocytes residue was resuspended in ice cold phosphate saline buffer (pH 7.4) to a final optical density of 1.5 at 700 nm and kept on ice. For the hemolytic assay, 180 µL of erythrocyte suspension was mixed with 20 µL of test compound solution, as well as control, chitonoidoside L [33], in V-bottom 96-well plates. After 1 h of incubation at 37 °C, the plates were exposed to centrifugation for 10 min at 900 g in a laboratory LMC-3000 centrifuge (Biosan, Riga, Latvia). Then, 100 µL of supernatant was carefully decanted and transferred into new flat plates. The values of the lysis of the erythrocytes were found by measuring the concentration of hemoglobin in the supernatant with a Multiskan FC microplate photometer (Thermo Fisher Scientific, Waltham, MA, USA); λ = 570 nm. […] All the experiments were carried out in triple repetitions; p < 0.01.

MCF-7 cells = test: Cytotoxic activity (MTT assay); type: cell-based, human; details: MCF-7, MTT, 24 h; read-out: Cytotoxicity, IC50 MCF-7
Method: as §1

MDA-MB-231 cells [1] = test: Cytotoxic activity (MTT assay); type: cell-based, human; details: MDA-MB-231, MTT, 24 h; read-out: Cytotoxicity, IC50 MDA-MB-231
Method: as §1

HL-60 cells = test: Cytotoxic activity (MTS assay); type: cell-based, human; details: HL-60, MTS, 24 h; read-out: Cytotoxicity, IC50 HL-60
Method: (§2) Then, the cells were incubated with 10 µL MTS ([3-(4,5-dimethylthiazol-2-yl)-5-(3-carboxymethoxyphenyl)-2-(4-sulfophenyl)-2H-tetrazolium) for 4 h, and the absorbance in each well was determined at 490/630 nm with a PHERA star FS plate reader (BMG Labtech, Ortenberg, Germany). The experiments were conducted in triplicate.

MDA-MB-231 cells [2] = test: Wound scratch migration assay; type: cell-based, human
Excerpt: To analyze the influence of the tested compounds on tumor cell migration, MDA-MB-231 cells attached to the plate’s plastic bottom were separated by a silicone insert from special migration plates (Culture-insert 2 Well 24, ibiTreat); then, the insert was removed, leaving a gap of 500 ± 50 μm (according to the manufacturer’s data) between the cells. The cells were washed twice by PBS to remove cell debris and floating cells and loaded with a fluorescent probe, a (5,6)-carboxyfluorescein succinimidyl ester (CFDA SE) dye (LumiTrace CFDA SE kit, Lumiprobe, Moscow, Russia). The initial solution of CFDA SE at a concentration of 5 mM in DMSO was dissolved in PBS to prepare a 10 μM solution and was added to the cells for 5 min at 37 °C; then, the cells were washed twice with PBS, and fresh culture medium was added. After that, the cells were treated with various concentrations of glycosides and left for 8 and 24 h. Cells treated with culture medium only were used as control. Cell migration into the wound area was then observed under a fluorescence microscope (MIB-2-FL, LOMO, Saint Peterburg, Russia) with an objective ×10 magnification.

MDA-MB-231 cells [3] = test: Colony formation (clonogenic) assay; type: cell-based, human; details: Homo sapiens; MDA-MB-231, concentration 2 μM; read-out: Inhibition of colony growth, % of the control
Method: The influence of glycosides on the proliferation of MDA-MB-231 cells was analyzed by clonogenic assay. Briefly, MDA-MB-231 cells were cultured on 6-well plates at a density of 1 × 10^3 cells per well in control media (MEM media, 10% FBS, 10,000 U/mL of penicillin and 10,000 μg/mL of streptomycin) or in media supplemented with different concentrations of glycosides. Cells were incubated for one week at 37 °C with 5% CO2 until the cells in the control plates formed colonies that were visible to the eye and were of a substantial size (at least 50 cells per colony). For fixation and staining, the media were removed and the cells were washed twice with PBS. The colonies were fixed with methanol for 25 min, then washed with PBS and stained with 0.5% crystal violet solution for 25 min at room temperature. The plates were then washed with water and air dried.

[4] = Cytotoxic activity (MTT assay); type: cell-based, human; details: human
Method: as §1

[5] = Cytotoxic activity (MTS assay); type: cell-based, human; details: human
Method: as §2

[6] = Cytotoxic activity (MTT assay); type: cell-based, human; details: human; remark: listed apart in the source
Method: as §1

[7] = Cytotoxic activity (MTT assay); type: cell-based, human; details: human; remark: listed apart in the source
Method: as §1

[8] = Cytotoxic activity (MTT assay); type: cell-based, human; details: human; remark: listed apart in the source
Method: as §1

cancer cell lines = test: Cytotoxic action against cancer cell lines (summary in words); type: cell-based, human; details: cancer cell lines HL-60, MCF-7, T-47D, MDA-MB-231
Method: All the substances were tested in concentrations from 0.1 µM to 50 µM. Cisplatin was used as positive control. The cell suspension (180 µL) and solutions (20 µL) of tested glycosides in different concentrations were injected in wells of 96-well plates (MCF-7, T-47D, MDA-MB-231, and HEK293—7 × 10^3 cells/well) and incubated at 37 °C for 24 h in an atmosphere with 5% CO2. Glycosides 1 and 2, cucumarioside A0-1, and okhotoside A1-1 at concentrations of 1.25–10.0 μM were incubated with MDA-MB-231 cells at 37 °C for 24, 48, and 72 h in an atmosphere with 5% CO2. After incubation, the glycosides with medium were replaced by 100 µL of fresh medium. Then, 10 µL of MTT (3-(4,5-dimethylthiazol-2-yl)-2,5-diphenyltetrazolium bromide) (Sigma-Aldrich, St. Louis, MO, USA) stock solution (5 mg/mL) was added to each well, followed by incubation of the microplate for 4 h. After this procedure, 100 µL of SDS-HCl solution (1 g SDS/10 mL d-H2O/17 µL 6 N HCl) was added to each well and incubated for 18 h. The absorbance of the converted dye formazan was determined with a Multiskan FC microplate photometer (Thermo Fisher Scientific, Waltham, MA, USA) at 570 nm. […] The experiments were conducted in triplicate; p < 0.05.
as §2, with “triplicate. The results were presented as the percentage of inhibition that produced a reduction in absorbance after tested glycosides treatment compared to the nontreated cells (negative control); p < 0.01.” for “triplicate.”

Structure (SMILES) | IC50 (HEK293 cells) | IC50 (T-47D cells) | ED50, Erythrocytes (human erythrocytes) | IC50 (MCF-7 cells) | IC50 (MDA-MB-231 cells [1]) | IC50 (HL-60 cells) | inhibition at 2 µM (MDA-MB-231 cells [2]; Homo sapiens, MDA-MB-231, 2 μM, 24 h incubation, read-out: Inhibition of migration as compared to control) | inhibition at 2 µM (MDA-MB-231 cells [3]) | EC50 at 48 h [4] | EC50 at 72 h [4] | IC50 at 24 h [5] | Blockage of migration in relation to control (MDA-MB-231 cells [2]; MDA-MB-231, 1 μM, 24 h) | IC50 at 24 h [6] | IC50 at 24 h [7] | Hemolytic action (in words) (human erythrocytes) | IC50 at 24 h [8] | IC50 at 24 h [4] | Activity against cancer cells (in words) (cancer cell lines)
CO[C@@H]1[C@@H](O)[C@H](O[C@@H]2[C@@H](O)[C@H](O[C@H]3[C@H](O)[C@@H](O[C@H]4OC[C@H](O)[C@H](O)[C@@H]4O)[C@H](O[C@H]4[C@H](O[C@H]5CC[C@]6(C)[C@@H]7CC[C@]89C(=O)O[C@@](C)(C[C@@H](O)CC(C)C)[C@H]8[C@@H](OC(C)=O)C[C@@]9(C)C7=CC[C@H]6C5(C)C)OC[C@@H](OS(=O)(=O)O)[C@@H]4O)O[C@@H]3C)OC[C@H]2O)O[C@H](CO)[C@H]1O [frondoside D] | 9.45 ± 0.78 µM | 11.8 ± 1.1 µM | 9.22 ± 0.10 µM | 23.2 ± 0.92 µM | 12 ± 1.28 µM | 18.08 ± 0.08 µM | – | – | – | – | – | – | – | – | – | – | – | –
CO[C@@H]1[C@@H](O)[C@H](O[C@@H]2[C@@H](O)[C@H](O[C@H]3[C@H](O)[C@@H](O)[C@H](O[C@H]4[C@H](O[C@H]5CC[C@]6(C)[C@@H]7CCC89C(=O)O[C@@](C)([C@H](O)C(=O)CC(C)C)[C@H]8[C@@H](OC(C)=O)C[C@@]9(C)C7=CC[C@H]6C5(C)C)OC[C@@H](OS(=O)(=O)O)[C@@H]4O)O[C@@H]3C)OC[C@H]2O)O[C@H](CO)[C@H]1O (stereo partly drawn) [djakonovioside A1 (2), 3β-O-[3-O-methyl-β-D-glucopyranosyl-(1→3)-β-D-xylopyranosyl-(1→4)-β-D-quinovopyranosyl-(1→2)-4-O-sodium sulfate-β-D-xylopyranosyl}-16β-acetoxy,22S-hydroxy,23-oxo-holost-7-en] | – | – | 2.26 ± 0.25 µM | – | – | – | 79.5 ± 9.12% | 19.2 ± 0.25% | 7.33 µM | 6.25 µM | 4.44 ± 0.37 µM | – | – | – | – | – | – | –
CO[C@@H]1[C@@H](O)[C@H](O[C@@H]2[C@@H](O)[C@H](O[C@H]3[C@H](O)[C@@H](O)[C@H](O[C@H]4[C@H](O[C@H]5CC[C@]6(C)[C@@H]7CCC89C(=O)O[C@@](C)(C[C@@H](O)CC(C)C)[C@H]8[C@@H](OC(C)=O)C[C@@]9(C)C7=CC[C@H]6C5(C)C)OC[C@@H](OS(=O)(=O)O)[C@@H]4O)O[C@@H]3C)OC[C@H]2O)O[C@H](CO)[C@H]1O (stereo partly drawn) [djakonovioside A (1), 3β-O-[3-O-methyl-β-D-glucopyranosyl-(1→3)-β-D-xylopyranosyl-(1→4)-β-D-quinovopyranosyl-(1→2)-4-O-sodium sulfate-β-D-xylopyranosyl}-16β-acetoxy,23S-hydroxyholost-7-en] | – | – | 2.46 ± 0.22 µM | – | – | – | – | 41.4 ± 3.16% | 4.45 µM | 3.77 µM | 6.05 ± 0.17 µM | 79.92 ± 0.27% | – | – | – | – | – | –
COC1C(O)C(CO)OC(OC2C(O)COC(OC3C(C)OC(OC4C(OC5CCC6(C)C7CCC89C(=O)OC%10(C)C(O)C(O)(CC(C)C)OC(CC8(C)C7=CCC6C5(C)C)C%109)OCC(OS(=O)(=O)O)C4O)C(OC4OCC(O)C(O)C4O)C3O)C2O)C1O [djakonovioside B4 (7), 3β-O-{3-O-methyl-β-D-glucopyranosyl-(1→3)-β-D-xylopyranosyl-(1→4)-[(1→2)-β-D-xylopyranosyl]-β-D-quinovopyranosyl-(1→2)-4-O-sodium sulfate-β-D-xylopyranosyl}-22S-hydroxyholost-7-en-23R,16β-hemiketal] | – | – | 17.07 ± 1.15 µM | – | – | – | – | – | – | – | > 50 µM | – | > 50 µM | > 50 µM | moderately hemolytic | > 50 µM | > 50 µM | inactive
COC1C(O)C(CO)OC(OC2C(O)COC(OC3C(C)OC(OC4C(OC5CCC6(C)C7CCC89C(=O)OC%10(C)C(O)C(O)(CC(C)C)OC(CC8(C)C7=CCC6C5(C)C)C%109)OCC(OS(=O)(=O)O)C4O)C(O)C3O)C2O)C1O [djakonovioside A2 (3), 3β-O-[3-O-methyl-β-D-glucopyranosyl-(1→3)-β-D-xylopyranosyl-(1→4)-β-D-quinovopyranosyl-(1→2)-4-O-sodium sulfate-β-D-xylopyranosyl}-22S-hydroxyholost-7-en-23R,16β-hemiketal] | – | – | 30.86 ± 0.97 µM | – | – | – | – | – | – | – | > 50 µM | – | > 50 µM | > 50 µM | moderately hemolytic | > 50 µM | > 50 µM | inactive
